Measured values reported in US8211939B2, “Isosorbide nitrates” (Lacer, S.A., priority 2008, dated 2012).
Where two headings read alike, the source gives them in different places.

What was measured:
[1] = test system: thrombus formation in the carotid artery (70% FeCl3 patch); assay: Anti-thrombotic activity, FeCl3-induced carotid artery thrombosis; type: in vivo, Male Wistar rats; conditions: po, % animals protected, read-out: Antithrombotic activity (% protection); for responders at 90 µmol/kg: 90 μmol/kg p.o.
Description: Anti-Thrombotic Activity Assessment Experimental Procedure Male Wistar rats weighing 250-300 g were used after an acclimatization period of five days, and animals were divided in groups of 8 animals each for the treatments. […] The vehicle used to dissolve the products consisted of 1% Cremophor EL 27963, 1% Tween 80 and 0.5% Methocel E-15 in distilled water. After a fasting period of 8 hours with free access to drinking water each product was given by gavage 1 hour before induction of thrombosis. Thrombus formation was induced using a patch embedded with 70% FeCl3 solution applied onto the carotid artery using the same procedure described by Feuerstein G Z et al and later modified by Kurz et al (Feuerstein G Z, et al Artherioscler. Thromb. Vasc. Biol. 1999, 19: 2554-2562, Kurz K D, et al Thromb. Res. 1990, 60:269-280). Anti-thrombotic efficacy was evaluated at different times after dosage. Rats were anesthetized with sodium pentobarbital and then placed on a dorsal position over a thermal blanket laid on a surgical board and heated at 37° C. The left carotid artery was dissected and an electromagnetic blood flow probe was placed on the artery to measure blood flow. After application of the thrombotic stimuli, blood flow was monitored for the following 30 minutes. The vessel was considered occluded by the thrombus when flow reached 0.0 ml/min. Data were analysed by contingency tables using the Graph Pad Prism Program. P values were calculated using Fisher's exact test, values of p<0.05 were considered statistically significant. Results were expressed as % animals protected.

[2] = test system: coronary angina caused by coronary obstruction (35% ferric chloride patch on left anterior descending coronary artery); assay: Anti-anginal activity, ferric chloride-induced coronary angina (ECG S-wave); type: in vivo, Male Wistar rats; conditions: Rattus norvegicus, po, read-out: Antianginal activity (% inhibition of S-wave decrease)
Description: Anti-Anginal Activity Assessment
Male Wistar rats weighing 250-300 g were used after an acclimatization period of five days, and animals were divided in groups of 8 for each treatment. In all experiments, rats were treated with 90 μmol/kg of each product by oral gavage using an administration volume of 10 ml/kg unless otherwise stated. The vehicle used to dissolve the products consisted of 1% Cremophor EL 27963, 1% Tween 80 and 0.5% Methocel E-15 in distilled water. […]
The procedure used to test the anti-anginal activity was that described by Hirata Y et al (Hirata Y, et al. Journal of Cardiovascular Pharmacology 1998, 31: 322-326).
After treatment, animals were anaesthetized with pentobarbital and electrodes were set for standard limb lead II electrocardiogram recording (Grass polygraph model 7, amplifier 7DA and pre-amplifier 7P1).
To induce coronary angina caused by coronary obstruction, a 35%-ferric chloride embedded mini patch was applied onto the left anterior descending coronary artery just below the left auricle. In all groups, after application of the patch, the ECG was recorded during 10 minutes. The shortening of the S-wave amplitude was measured on the recorded ECG. Data were collected with a Biopac system model MP100 connected to a Pentium PC. Results were expressed as % inhibition of S-wave decrease vs the untreated control.

[3] = Rattus norvegicus, 1 h, 1 h after dosage
[4] = Rattus norvegicus, 2 h, 2 h after dosage
[5] = Rattus norvegicus, 4 h, 4 h after dosage
[6] = 1 h, rat, 90 μmol/kg p.o., 1 h, vs untreated control
[7] = 4 h, rat, 90 μmol/kg p.o., 4 h, vs untreated control
[8] = 2 h, rat, 90 μmol/kg p.o., 2 h, vs untreated control
[9] = Rattus norvegicus, 0.5 h, ½ h after dosage

Compound | responders at 90 µmol/kg [1, 3] [%] | responders at 90 µmol/kg [1, 4] [%] | responders at 90 µmol/kg [1, 5] [%] | inhibition in vivo at 90 µmol/kg [2, 6] [%] | inhibition in vivo at 90 µmol/kg [2, 7] [%] | inhibition in vivo at 90 µmol/kg [2, 8] [%] | responders at 90 µmol/kg [1, 9] [%] | responders at 230 µmol/kg ([1]; Rattus norvegicus, 1 h, 230 μmol/kg p.o., 1 h after dosage) [%] | inhibition in vivo at 90 µmol/kg ([2]; 0.5 h, rat, 90 μmol/kg p.o., ½ h, vs untreated control) [%] | responders at 90 µmol/kg ([1]; rat, 1 h after dosage) [%] | inhibition in vivo at 90 µmol/kg ([2]; 1 h) [%] | inhibition in vivo at 90 µmol/kg ([2]; 4 h) [%] | inhibition in vivo at 450 µmol/kg ([2]; 1 h, rat, 450 μmol/kg p.o., 1 h, vs untreated control) [%]
CCCS(=O)(=O)[C@H]1CO[C@H]2[C@@H]1OC[C@H]2O[N+](=O)[O-] [Ej. 8, (3R,3aS,6S,6aS)-6-(propylsulfonyl)hexahydrofuro[3,2-b]furan-3-yl nitrate] | 100 | 50 | 0 | 77 | 25 | – | – | – | – | – | – | – | –
CCCS[C@@H]1CO[C@H]2[C@@H]1OC[C@H]2O[N+](=O)[O-] [Ej. 12, (3R,3aS,6R,6aS)-6-(propylthio)hexahydrofuro[3,2-b]furan-3-yl nitrate] | 32 | – | 16 | 14 | 0 | 0 | – | – | – | – | – | – | –
CC(=O)S[C@@H]1CO[C@H]2[C@@H]1OC[C@H]2O[N+](=O)[O-] [Ej. 10, S-(3R,3aS,6R,6aS)-6-(nitrooxy)hexahydrofuro[3,2-b]furan-3-yl ethanethioate] | 75 | 83 | 40 | 69 | 57 | – | 67 | – | – | – | – | – | –
CCS(=O)(=O)[C@H]1CO[C@H]2[C@@H]1OC[C@H]2O[N+](=O)[O-] [Ej. 7, (3R,3aS,6S,6aS)-6-(ethylsulfonyl)hexahydrofuro[3,2-b]furan-3-yl nitrate] | 84 | 32 | 0 | 81 | 23 | – | 50 | – | – | – | – | – | –
CCC[S+]([O-])[C@H]1CO[C@H]2[C@@H]1OC[C@H]2O[N+](=O)[O-] (stereo partly drawn) [Ej. 5, (3R,3aS,6S,6aS)-6-((R,S)-propylsulfinyl)hexahydrofuro[3,2-b]furan-3-yl nitrate] | 76 | 67 | 50 | 87 | 58 | – | 40 | – | – | – | – | – | –
CCCS[C@H]1CO[C@H]2[C@@H]1OC[C@H]2O[N+](=O)[O-] [Ej. 2, (3R,3aS,6S,6aS)-6-(propylthio)hexahydrofuro[3,2-b]furan-3-yl nitrate] | 67 | – | – | 69 | 8 | – | – | – | – | – | – | – | –
C[S@@+]([O-])[C@H]1CO[C@H]2[C@@H]1OC[C@H]2O[N+](=O)[O-] [Comp 6, (3R,3aS,6S,6aS)-6-((R)-methylsulfinyl)hexahydrofuro[3,2-b]furan-3-yl nitrate, reference compound] | 16 | 0 | 0 | 48 | 0 | – | 40 | – | – | – | – | – | –
O=[N+]([O-])O[C@@H]1CO[C@H]2[C@@H]1OC[C@@H]2S [Comp 1, (3R,3aS,6S,6aS)-6-(mercapto)hexahydrofuro[3,2-b]furan-3-yl nitrate, reference compound] | – | 32 | 16 | 0 | – | 50 | – | 50 | 0 | – | – | – | –
CCS[C@H]1CO[C@H]2[C@@H]1OC[C@H]2O[N+](=O)[O-] [Ej. 1, (3R,3aS,6S,6aS)-6-(ethylthio)hexahydrofuro[3,2-b]furan-3-yl nitrate] | – | – | – | – | – | – | – | – | – | 32 | 29 | 0 | –
CC[S+]([O-])[C@H]1CO[C@H]2[C@@H]1OC[C@H]2O[N+](=O)[O-] (stereo partly drawn) [Ej. 4, (3R,3aS,6S,6aS)-6-((R,S)-ethylsulfinyl)hexahydrofuro[3,2-b]-furan-3-yl nitrate] | 67 | 83 | 50 | 84 | 43 | – | 32 | – | – | – | – | – | –
CCCS(=O)(=O)[C@@H]1CO[C@H]2[C@@H]1OC[C@H]2O[N+](=O)[O-] [Ej. 16, (3R,3aS,6R,6aS)-6-(propylsulfonyl)hexahydrofuro[3,2-b]furan-3-yl nitrate] | 40 | – | 20 | 32 | 30 | – | – | – | – | – | – | – | –
CCS[C@@H]1CO[C@H]2[C@@H]1OC[C@H]2O[N+](=O)[O-] [Ej. 11, (3R,3aS,6R,6aS)-6-(ethylthio)hexahydrofuro[3,2-b]furan-3-yl nitrate] | 66 | – | 0 | 41 | – | – | – | – | – | – | – | – | –
CCS(=O)(=O)[C@@H]1CO[C@H]2[C@@H]1OC[C@H]2O[N+](=O)[O-] [Ej. 15, (3R,3aS,6R,6aS)-6-(ethylsulfonyl)hexahydrofuro[3,2-b]furan-3-yl nitrate] | 9 | – | 0 | 21 | 0 | 0 | – | – | – | – | – | – | –
C[S@+]([O-])[C@H]1CO[C@H]2[C@@H]1OC[C@H]2O[N+](=O)[O-] [Comp 7, (3R,3aS,6S,6aS)-6-((S)-methylsulfinyl)hexahydrofuro[3,2-b]furan-3-yl nitrate, reference compound] | 0 | 0 | 0 | – | – | – | 0 | – | – | – | – | – | 73
